Results taken from patent US12187706B2, “NLRP3 modulators” (INNATE TUMOR IMMUNITY, INC., priority 2019, dated 2025).

Target: T1, NLRP3 (Homo sapiens, UniProt Q96P20)
T1 construct: host or cells: PMA-differentiated THP-1 cells
Test: Measurement of IL-1β production in PMA-differentiated THP-1 cells (NLRP3 hIL1B)
Assay type: cell-based
Method: Measurement of IL-1β Production in PMA-Differentiated THP-1 Cells
THP-1 cells were purchased from the American Type Culture Collection and sub-cultured according to instructions from the supplier. Prior to experiments, cells were cultured in RPMI 1640 containing 10% heat inactivated FBS, penicillin (100 units/ml) and streptomycin (100 μg/ml), and maintained in log phase prior to experimental setup. Prior to the experiment THP-1 were treated with PMA (Phorbol 12-myristate 13-acetate) (10 μg/ml) for 24 hours. The day of the experiment the media was removed and attaching cells were treated with trypsin for 2 minutes, cells were then collected, washed with PBS (phosphate buffer saline), spin down, resuspended in 2% heat inactivated FBS with RPMI at a concentration of 1×10^6 cells/ml, and 100 μl was plated in a 96 well plate. Compounds were dissolved in dimethyl sulfoxide (DMSO) and added to the culture medium to achieve desired concentration (e.g. 100, 30, 10, 3, 1, 0.3 or 0.1 μM). Cells were incubated with compounds for 4 hours. Cell free supernatant was collected and the production of IL-1β was evaluated by ELISA. A vehicle only control was run concurrently with each experiment. Final DMSO concentration was 1%.
Measurement of IL-1β Production in PMA-Differentiated THP-1 Cells (Alternative Procedure)
THP-1 cells were purchased from the American Type Culture Collection and sub-cultured according to instructions from the supplier. Prior to experiments, cells were cultured in RPMI 1640 containing 10% heat inactivated FBS, penicillin (100 units/ml), streptomycin (100 μg/ml), HEPES (10 mM) and sodium pyruvate (1 mM) and maintained in log phase prior to experimental setup. Prior to the experiment, THP-1 cells were treated with PMA (Phorbol 12-myristate 13-acetate) (20 μg/ml) overnight. The day of the experiment, the media was removed and attached cells were treated with trypsin for 2 minutes, cells were then collected, washed with PBS (phosphate buffer saline), pelleted by centrifugation and resuspended in 2% heat inactivated FBS with RPMI at a concentration of 50,000 cells/well in a 384 well plate. Cell free supernatant was collected and the production of IL-1β was evaluated by ELISA. Compounds were dissolved in dimethyl sulfoxide (DMSO) and added to the culture medium to achieve desired concentration (e.g. 100, 30, 10, 3, 1, 0.3 or 0.1 μM). Cells were incubated with compounds for 2 hours. A vehicle only control was run concurrently with each experiment. Final DMSO concentration was 1%.
Measurement of IL-1β Production—hTRF Protocol (Second Alternative Procedure)
Serial dilutions of compounds in DMSO were added to low volume 384 well plates at 100 nl/well using an ECHO 550 acoustic dispenser (Labcyte) to achieve final starting concentration of 10 μM in assay.
THP-1 cells in RPMI (Gibco, 11875) media with 10% FBS at a density of 1×10^6 cell/ml in a T175 flask were treated with a final concentration of phorbol 12-myristate 13-acetate (PMA) (Sigma, P1585) of 50 ng/ml overnight at 37° C. at 5% CO2 for differentiation. Cells were harvested the next day after rinsing well with dPBS using 0.5% trypsin. A cell solution was prepared of 1×10^6 cells/ml for 50,000 cells in 50 μl/well in RPMI media with 2% FBS. Cells were plated using a multichannel pipette onto the compound dilutions in Greiner, 384 well, black clear bottom tissue culture treated plates (781090). The plates were incubated in 37° C. incubator at 5% CO2 for 2 hours.
After the 2 hour incubation, the cell plates were spun in the centrifuge for 5 minutes at 1200 rpm. Using the Felix (CyBio), 8 μl of the supernatant was transferred to 384 well, low volume, white proxy plates. (Perkin Elmer, 6008230). A human IL1beta hTRF kit was used to analyze the supernatant (CISBIO, 62HIL1BPEG). The kit instructions were followed for preparing the IL1Beta standard curve and then the antibodies from the kit were diluted 1:40 rather than 1:20 as kit instructed.

T1 sequence (Q96P20 whole entry): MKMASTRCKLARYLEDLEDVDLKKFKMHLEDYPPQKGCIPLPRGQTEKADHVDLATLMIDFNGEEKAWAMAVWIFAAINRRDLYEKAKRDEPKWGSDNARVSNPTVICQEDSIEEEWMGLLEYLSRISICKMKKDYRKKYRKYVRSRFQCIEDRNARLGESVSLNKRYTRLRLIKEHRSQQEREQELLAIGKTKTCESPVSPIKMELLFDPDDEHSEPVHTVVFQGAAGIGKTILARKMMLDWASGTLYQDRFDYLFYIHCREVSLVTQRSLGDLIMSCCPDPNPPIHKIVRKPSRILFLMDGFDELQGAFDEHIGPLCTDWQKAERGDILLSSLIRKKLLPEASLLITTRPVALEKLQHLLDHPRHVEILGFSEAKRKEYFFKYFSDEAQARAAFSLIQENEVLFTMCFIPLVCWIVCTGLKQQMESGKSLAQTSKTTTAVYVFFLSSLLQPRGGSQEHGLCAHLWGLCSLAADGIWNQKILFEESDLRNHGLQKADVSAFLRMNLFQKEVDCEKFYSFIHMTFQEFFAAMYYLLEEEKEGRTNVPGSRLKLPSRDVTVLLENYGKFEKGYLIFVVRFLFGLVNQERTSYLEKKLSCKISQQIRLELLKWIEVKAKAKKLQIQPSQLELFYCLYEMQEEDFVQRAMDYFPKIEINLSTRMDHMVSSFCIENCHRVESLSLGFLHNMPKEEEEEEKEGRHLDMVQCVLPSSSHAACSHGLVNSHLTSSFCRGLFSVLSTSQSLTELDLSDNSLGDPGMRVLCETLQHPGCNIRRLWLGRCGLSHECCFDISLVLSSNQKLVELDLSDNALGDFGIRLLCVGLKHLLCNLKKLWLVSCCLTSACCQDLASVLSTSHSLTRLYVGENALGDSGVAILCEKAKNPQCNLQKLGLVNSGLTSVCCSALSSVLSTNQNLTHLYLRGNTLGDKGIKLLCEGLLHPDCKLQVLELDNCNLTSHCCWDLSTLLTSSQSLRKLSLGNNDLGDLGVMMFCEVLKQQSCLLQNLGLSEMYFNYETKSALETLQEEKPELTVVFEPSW

| EC50 | Compound |
| --- | --- |
| 2150 nM | CC(C)(O)C(O)CNc1nc(N)nc2cc(-c3ccn[nH]3)ccc12 (racemic) [Example 8, rac-1-((2-amino-7-(1H-pyrazol-5-yl)quinazolin-4-yl)amino)-3-methylbutane-2,3-diol] |
| 780 nM | Nc1nc(N[C@H]2CCC[C@@H](O)C2)c2c(F)cc(-c3cc[nH]n3)cc2n1 (racemic) [Example 16, cis-3-((2-amino-5-fluoro-7-(1H-pyrazol-3-yl)quinazolin-4-yl)amino)cyclohexan-1-ol] |
| 950 nM | Nc1nc(N[C@H]2CCC[C@H](O)C2)c2c(F)cc(-c3cc[nH]n3)cc2n1 (racemic) [Example 17, trans-3-((2-amino-5-fluoro-7-(1H-pyrazol-3-yl)quinazolin-4-yl)amino)cyclohexan-1-ol] |
| 720 nM | Nc1nc(N[C@@H]2COC[C@H]2O)c2ccc(-c3ccn[nH]3)cc2n1 (racemic) [Example 25, trans-4-((2-amino-7-(1H-pyrazol-5-yl)quinazolin-4-yl)amino)tetrahydrofuran-3-ol] |
| 800 nM | Nc1nc(N[C@H]2CCCC[C@H]2CO)c2ccc(-c3ccn[nH]3)cc2n1 (racemic) [Example 57] |
| 650 nM | Nc1nc(NC[C@@H]2CCCC[C@@H]2O)c2ccc(-c3ccn[nH]3)cc2n1 (racemic) [Example 77] |
| 670 nM | C[C@]1(O)CC[C@@H](Nc2nc(N)nc3cc(-c4ccn[nH]4)ccc23)C1 (racemic) [Example 107] |
| 4170 nM | C[C@@]1(O)CC[C@@H](Nc2nc(N)nc3cc(-c4ccn[nH]4)ccc23)C1 (racemic) [Example 108] |
| 1950 nM | Nc1nc(NC2C[C@@H](O)[C@H](O)C2)c2ccc(-c3ccn[nH]3)cc2n1 (racemic) [Example 109] |
| 640 nM | Nc1nc(N[C@@H]2CC[C@@H](O)[C@@H]2O)c2ccc(-c3ccn[nH]3)cc2n1 (racemic) [Example 110] |
| 1560 nM | Nc1nc(N[C@H]2C[C@@H](O)C[C@@H]2O)c2ccc(-c3cc[nH]n3)cc2n1 (racemic) [Example 117] |
| 980 nM | Nc1nc(N[C@H]2C[C@H](O)C[C@@H]2O)c2ccc(-c3cc[nH]n3)cc2n1 (racemic) [Example 118] |
| 3650 nM | CO[C@@H]1C[C@@H](Nc2nc(N)nc3cc(-c4ccn[nH]4)ccc23)C[C@H]1O (racemic) [Example 141, rac-(1R,2R,4S)-4-((2-amino-7-(1H-pyrazol-5-yl)quinazolin-4-yl)amino)-2-methoxycyclopentan-1-ol] |
| 13000 nM | Nc1nc(NCC2CCC(=O)N2)c2ccc(-c3ccn[nH]3)cc2n1 (single isomer, unassigned) [Example 5, 5-(((2-amino-7-(1H-pyrazol-5-yl)quinazolin-4-yl)amino)methyl)pyrrolidin-2-one] |
| 2110 nM | Nc1nc(NCC2CCC(=O)N2)c2ccc(-c3ccn[nH]3)cc2n1 (single isomer, unassigned) [Example 6, 5-(((2-amino-7-(1H-pyrazol-5-yl)quinazolin-4-yl)amino)methyl)pyrrolidin-2-one] |
| 1310 nM | CC(C)(O)C(O)CNc1nc(N)nc2cc(-c3ccn[nH]3)ccc12 (single isomer, unassigned) [Example 9, 1-((2-amino-7-(1H-pyrazol-5-yl)quinazolin-4-yl)amino)-3-methylbutane-2,3-diol] |

| EC50 | Compound |
| --- | --- |
| 1860 nM | CC(C)(O)C(O)CNc1nc(N)nc2cc(-c3ccn[nH]3)ccc12 (single isomer, unassigned) [Example 10, 1-((2-amino-7-(1H-pyrazol-5-yl)quinazolin-4-yl)amino)-3-methylbutane-2,3-diol] |
| 3920 nM | Nc1nc(N[C@H]2COC[C@@H](O)C2)c2ccc(-c3ccn[nH]3)cc2n1 (single isomer, unassigned) [Example 12] |
| 1180 nM | Nc1nc(N[C@H]2COC[C@@H](O)C2)c2ccc(-c3ccn[nH]3)cc2n1 (single isomer, unassigned) [Example 13] |
| 860 nM | CCCC(CCO)Nc1nc(N)nc2cc(-c3ccn[nH]3)ccc12 (single isomer, unassigned) [Example 98, 3-((2-amino-7-(1H-pyrazol-5-yl)quinazolin-4-yl)amino)hexan-1-ol] |
| 830 nM | CCCCC(CCO)Nc1nc(N)nc2cc(-c3ccn[nH]3)ccc12 (single isomer, unassigned) [Example 101, 3-((2-amino-7-(1H-pyrazol-5-yl)quinazolin-4-yl)amino)heptan-1-ol] |
| 4420 nM | Cn1ccnc1C(O)CNc1nc(N)nc2cc(-c3ccn[nH]3)ccc12 (single isomer, unassigned) [Example 149, 2-((2-amino-7-(1H-pyrazol-5-yl)quinazolin-4-yl)amino)-1-(1-methyl-1H-imidazol-2-yl)ethan-1-ol] |
| 2450 nM | Cn1ccnc1C(O)CNc1nc(N)nc2cc(-c3ccn[nH]3)ccc12 (single isomer, unassigned) [Example 150, 2-((2-amino-7-(1H-pyrazol-5-yl)quinazolin-4-yl)amino)-1-(1-methyl-1H-imidazol-2-yl)ethan-1-ol] |
| 240 nM | Nc1nc(N[C@@H]2C[C@H]2c2cccnc2)c2ccc(-c3ccn[nH]3)cc2n1 (single isomer, unassigned) [Example 162, 7-(1H-pyrazol-5-yl)-N4-((trans)-2-(pyridin-3-yl)cyclopropyl)quinazoline-2,4-diamine] |
| 650 nM | Nc1nc(N[C@@H]2C[C@H]2c2cccnc2)c2ccc(-c3ccn[nH]3)cc2n1 (single isomer, unassigned) [Example 163, 7-(1H-pyrazol-5-yl)-N4-((trans)-2-(pyridin-3-yl)cyclopropyl)quinazoline-2,4-diamine] |
| 660 nM | Nc1nc(N[C@H]2CCC[C@@H](O)C2)c2ccc(-c3ccn[nH]3)cc2n1 (single isomer, unassigned) [Example 178, (cis)-3-((2-amino-7-(1H-pyrazol-5-yl)quinazolin-4-yl)amino)cyclohexan-1-ol] |
| 270 nM | Nc1nc(N[C@H]2CCC[C@@H](O)C2)c2ccc(-c3ccn[nH]3)cc2n1 (single isomer, unassigned) [Example 179, (cis)-3-((2-amino-7-(1H-pyrazol-5-yl)quinazolin-4-yl)amino)cyclohexan-1-ol] |
| 170 nM | N#C[C@H]1CC[C@H](Nc2nc(N)nc3cc(-c4ccn[nH]4)ccc23)C1 (single isomer, unassigned) [Example 185, (trans)-3-((2-amino-7-(1H-pyrazol-5-yl)quinazolin-4-yl)amino)cyclopentane-1-carbonitrile] |
| 70 nM | Nc1nc(NCC2CC2(F)F)c2ccc(-c3cc[nH]n3)cc2n1 (single isomer, unassigned) [Example 198, N4-((2,2-Difluorocyclopropyl)methyl)-7-(1H-pyrazol-3-yl)quinazoline-2,4-diamine] |
| 80 nM | Nc1nc(NCC2CC2(F)F)c2ccc(-c3cc[nH]n3)cc2n1 (single isomer, unassigned) [Example 199, N4-((2,2-Difluorocyclopropyl)methyl)-7-(1H-pyrazol-3-yl)quinazoline-2,4-diamine] |
| 860 nM | CC(CCO)Nc1nc(N)nc2cc(-c3ccn[nH]3)ccc12 (single isomer, unassigned) [Example 200, 3-((2-amino-7-(1H-pyrazol-5-yl)quinazolin-4-yl)amino)butan-1-ol] |

| Compound | EC50 |
| --- | --- |
| CC(O)(CO)CNc1nc(N)nc2cc(-c3ccn[nH]3)ccc12 (racemic) [Example 11, rac-3-((2-amino-7-(1H-pyrazol-5-yl)quinazolin-4-yl)amino)-2-methylpropane-1,2-diol] | 1140 nM |
